Key:
[1] = test system: ER-dependent transcription in MELN cells; assay: ERE-luciferase reporter assay in MELN cells (MCF-7 stably transfected with ERE-β-globin-tk-Luc); type: cell-based, human; settings: 500 μM, maximal response = 10 nM E2
Source text: MELN cells were established by transfecting ER(+) MCF-7 cells with the ERE-β-globin-tk-Luc-SV-Neo plasmid ([36]). HELN cells were generated by transfection of ER(−) HeLa cells with this plasmid. The HELN-ERα, HELN-ERβ, HELN-ΔAB-ERα, and HELN-ΔAB-ERβ cell lines then underwent a second transfection with the corresponding pSG5-puro plasmids (pSG5-ERα-puro, pSG5-ERβ-puro, pSG5-ΔAB-ERα-puro, and pSG5-ΔAB-ERβ-puro, respectively) and expressed wild-type or mutated ERα or ERβ ([39], [40]). […] Comparison of the activities toward hERα and hERβ with the truncated ΔAB-ERα and ΔAB-ERβ provides a powerful model to identify partial ER agonists (requiring ligand-independent AF-1 to induce maximal ER activation). […] Cells were grown routinely in DMEM growth medium supplemented with 5% FBS (Gibco BRL, Life Technologies, Cergy pontoise, France). Cells were incubated at 37°C in a humidified 5% CO2 incubator. For experiments, cells were grown for 5 days in phenol red-free medium, containing 6% dextran-coated charcoal-treated FCS (DCC-FCS) with penicillin–streptomycin. Medium was changed after 2 days. On day 5, cells were treated or not with the compounds, which were dissolved in ethanol. For each condition, 15 × 10^3 cells were seeded per well in 12-well plates and treated, as described above, for 8 h in a final volume of 0.5 ml. At the end of the treatment, cells were washed with PBS and lysed in 150 μl lysis buffer (Promega, Charbonnières, France). Luciferase activity was measured using the luciferase assay reagent (Promega), according to the manufacturer’s instructions. Protein concentrations were measured using the Bradford technique ([41]) to normalize the luciferase activity data. For each condition, average luciferase activity was calculated from the data of three independent wells.
(§1) Figure 3 Measurement of estrogenicity of tocols in vitro. (A) Dose–response curve of the effect of tocols on MCF-7 cells stably transfected with the ERE-β-globin-tk-Luc plasmid (MELN cells). […] Data shown are the mean values ± SEM from three independent experiments. […] MCF-7 extracts were analyzed for the presence of ERα by western blotting using GAPDH as a control. […] The western blot shown is representative of three independent experiments. The ratio of ERα to GAPDH levels in each experiment was determined densitometrically and normalized to control value (taken to be 1). (D) Effect of δ-tocols on estrogen response element-dependent luciferase activity in HELN cells, which are HELA cells transfected with either fully functional ERα or ERβ or their mutated versions containing a deletion the AB domain (ΔAB). […] Data shown are the mean values ± SEM from three independent experiments. […] Cells were treated with 500 μM δ-tocols in the presence or in the absence of ICI. The relative expression of TGFα, PR, and Ps2 (TFF1) after 16 h was analyzed by quantitative RT-PCR. Data shown are the mean values ± SEM from three independent experiments.

ERα [2] = target: T1, ERα (Homo sapiens, UniProt P03372); settings: MCF-7 cells; 500 μM δ-TP or δ-TT, 100 nM E2; 3 h; western blot, GAPDH control
T1 sequence (P03372 1-595): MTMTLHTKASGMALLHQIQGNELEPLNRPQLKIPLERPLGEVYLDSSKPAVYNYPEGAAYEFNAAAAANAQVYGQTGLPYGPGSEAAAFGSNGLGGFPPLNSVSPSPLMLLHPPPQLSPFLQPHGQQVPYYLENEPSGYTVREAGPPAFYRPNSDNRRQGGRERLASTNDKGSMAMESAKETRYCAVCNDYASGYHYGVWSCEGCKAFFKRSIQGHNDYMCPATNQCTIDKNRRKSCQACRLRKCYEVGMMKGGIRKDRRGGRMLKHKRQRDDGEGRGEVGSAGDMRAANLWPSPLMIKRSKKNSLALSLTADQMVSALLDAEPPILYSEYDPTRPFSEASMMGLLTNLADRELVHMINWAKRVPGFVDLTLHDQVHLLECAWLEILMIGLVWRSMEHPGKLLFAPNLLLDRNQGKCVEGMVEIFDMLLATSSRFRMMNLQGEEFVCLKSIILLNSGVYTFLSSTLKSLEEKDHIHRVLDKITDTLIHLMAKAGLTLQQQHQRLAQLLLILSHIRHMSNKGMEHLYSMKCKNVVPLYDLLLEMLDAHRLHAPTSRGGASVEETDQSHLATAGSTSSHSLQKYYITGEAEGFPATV
Procedure: as §1

MCF-7 (ER(+)) cells = assay: Cell proliferation assay (sulforhodamine B); type: cell-based, human; settings: 500 μM δ-TP or δ-TT; 30 μM lovastatin; 6-day period
Procedure: MCF-7 (ER(+)), T47D (ER(+)), and MDA-MB-231 (ER(−)) cell lines were from ATCC. Cell lines were maintained at 37°C in a humidified incubator in a 5% CO2-enriched atmosphere in T-75 flasks. […] Cells were grown for 24 h before treatment in phenol red-free medium containing 5% DCC-FCS. Cells were seeded into 96-well plates at 2000 cells/well. Treatment media (150 μl/well) was added on the following day and replaced at 48-h intervals until the end of the experiment. Cell density was measured via the sulforhodamine B method ([43]) after 0, 2, 4, 6, and 8 days. The absorbance of SRB was measured directly at 490 nm in the 96-well plates using a multiskan® multisoft reader from Labsystem.

MDA-MB-231 (ER(−)) cells = assay: Cell proliferation assay (sulforhodamine B); type: cell-based, human; settings: 500 μM δ-TP or δ-TT; 30 μM lovastatin; 6-day period
Procedure: MCF-7 (ER(+)), T47D (ER(+)), and MDA-MB-231 (ER(−)) cell lines were from ATCC. Cell lines were maintained at 37°C in a humidified incubator in a 5% CO2-enriched atmosphere in T-75 flasks. MCF-7, T47D, and MDA-MB-231 cells were grown routinely in phenol red RPMI 1640 medium supplemented with 5% FBS (Gibco BRL, Life Technologies, Cergy Pontoise, France) and with penicillin–streptomycin. Cells were grown for 24 h before treatment in phenol red-free medium containing 5% DCC-FCS. Cells were seeded into 96-well plates at 2000 cells/well. Treatment media (150 μl/well) was added on the following day and replaced at 48-h intervals until the end of the experiment. Cell density was measured via the sulforhodamine B method ([43]) after 0, 2, 4, 6, and 8 days. The absorbance of SRB was measured directly at 490 nm in the 96-well plates using a multiskan® multisoft reader from Labsystem.
Figure 4 Effect of tocol on ER(+) and ER(−) BC cell proliferation and HMG-CoA reductase activity. (A) Effect of δ-tocols on estrogen and non-estrogen-regulated growth of MCF-7, T47D, and MDA-MB-231 cells. […] Cells were also treated with 30 μM lovastatin (Lova) in the presence or absence of 5 mM M, as described in Section “Materials and Methods.” Values are shown as means and vertical bars represent SEM. The data were analyzed by two-way ANOVA, followed by Bonferroni post hoc test. ***P < 0.001, **P < 0.01, and *P < 0.05 in comparison with control or bare-linked specific control. Ns: not significant. (B) Effect of δ-TT on hydroxymethylglutaryl coenzyme A reductase (HMGR) activity in MCF-7, T47D, and MDA-MB-231 cells. […] Data shown are the mean values ± SEM from three independent experiments performed in triplicate.

ERα [3] = target: T1, ERα; assay: ERE-luciferase reporter assay in HELN-ERα cells; type: cell-based; set-up: endogenous in cells; host or cells: MCF-7; settings: 500 μM
Source text: MELN cells were established by transfecting ER(+) MCF-7 cells with the ERE-β-globin-tk-Luc-SV-Neo plasmid ([36]). HELN cells were generated by transfection of ER(−) HeLa cells with this plasmid. The HELN-ERα, HELN-ERβ, HELN-ΔAB-ERα, and HELN-ΔAB-ERβ cell lines then underwent a second transfection with the corresponding pSG5-puro plasmids (pSG5-ERα-puro, pSG5-ERβ-puro, pSG5-ΔAB-ERα-puro, and pSG5-ΔAB-ERβ-puro, respectively) and expressed wild-type or mutated ERα or ERβ ([39], [40]). […] Luciferase activity was measured using the luciferase assay reagent (Promega), according to the manufacturer’s instructions. Protein concentrations were measured using the Bradford technique ([41]) to normalize the luciferase activity data. For each condition, average luciferase activity was calculated from the data of three independent wells.
Figure 3 Measurement of estrogenicity of tocols in vitro. […] MCF-7 extracts were analyzed for the presence of ERα by western blotting using GAPDH as a control. […] The ratio of ERα to GAPDH levels in each experiment was determined densitometrically and normalized to control value (taken to be 1). […] The relative expression of TGFα, PR, and Ps2 (TFF1) after 16 h was analyzed by quantitative RT-PCR. […]

| SMILES | luciferase activity as % of the maximal ER-dependent response [1] [%] | degradation of ERα protein (ERα [2]) | effect on MCF-7 cell proliferation (MCF-7 (ER(+)) cells) | effect on MDA-MB-231 cell proliferation (MDA-MB-231 (ER(−)) cells) | ER-dependent luciferase activity through ERα (ERα [3]) |
| --- | --- | --- | --- | --- | --- |
| CC(C)=CCC/C(C)=C/CC/C(C)=C/CC[C@]1(C)CCc2cc(O)cc(C)c2O1 [δ-TT, δ-tocotrienol] | 86.6 | not degraded | inhibited the proliferation | inhibited the proliferation | activate ER-dependent luciferase activity |
| Cc1cc(O)cc2c1OC(C)(CCCC(C)CCCC(C)CCCC(C)C)CC2 (stereo not shown) [δ-TP, δ-tocopherol] | 76.5 | not degraded | significant stimulation | no impact | activate ER-dependent luciferase activity |
